“And” between values parts separate entries of the source, which are not always exact repeats. Identical values can stand only once. Like-named read-outs stand apart in the source and are kept apart here.
Assays:
[1] = reported value for comparison, cited from earlier work; for reported E1/2 / observed peak position for W2^5+/4+: THF
[2] = Differential pulse voltammetry in THF vs Ag/AgCl; assay type: physicochemical; details: DPV peak
Description: ^1H NMR spectra were recorded on a Mercury 300 spectrometer with chemical shifts referenced to the protonated solvent residue. Mass spectrometry data (electrospray ionization, ESI) were recorded at the Laboratory for Biological Mass Spectrometry at Texas A&M University using an MDS Series Qstar Pulsar with a spray voltage of 5 kV. Elemental analyses were performed by Robertson Microlit Laboratories, Inc., Madison, N.J. on crystalline samples that were previously washed with cold hexanes and dried overnight under vacuum. Infrared spectra were recorded in a Perkin-Elmer 16PC FT IR spectrophotometer using KBr pellets. Electronic spectra were recorded on a Shimadzu UV-2501 PC spectrophotometer. The differential pulse voltammograms were collected using a CH Instruments model-CHI620A electrochemical analyzer in a 0.1 M Bu^n4NPF6 solution in THF, using Pt working and auxiliary electrodes, a Ag/AgCl reference electrode, and a scan rate of 100 mV/s. All potential values are referenced to the Ag/AgCl electrode, and under the present experimental conditions, the E1/2 for the Fc^+/Fc couple consistently occurred at +440 mV.

[3] = Solubility in dry organic solvents; assay type: physicochemical
[4] = vacuum
[5] = cited from earlier work
[6] = comparison value; cited from earlier work
[7] = Ionization energies of comparison substances; assay type: physicochemical; details: difference versus compounds 3 and 4
[8] = Literature potentials and solvation energy of comparison substances; assay type: physicochemical; details: difference versus compounds 3 and 4
[9] = Gas-phase photoelectron spectroscopy (PES) of the δ bond ionization; assay type: physicochemical; details: for onset ionization energy (IEonset, PESonset): first ionization band; for vertical ionization energy (VIE, PESvertical): position of main Gaussian peak
Description: The gas-phase PES of W2(TMhpp)4 and W2(TEhpp)4 were recorded using an instrument that features a 36-cm radius, 8-cm gap hemispherical analyzer, and custom-designed excitation source, sample cells, detection and control electronics, and methods that have been described, for example, in Rev. Sci. Instrum. 1986, 57, 2366 and J. Am. Chem. Soc. 1998, 120, 3382-3386. The temperature was monitored using a “K”-type thermocouple passed through a vacuum feed through and attached directly to the sample cell. Samples of W2(TMhpp)4 and W2(TEhpp)4 were loaded into stainless steel cells and placed in the instrument using rigorous air-sensitive techniques. The data collection focused on determining the δ bond ionization energy. To avoid decomposition in the sample chamber of the cell, ampoules containing the samples were broken off and placed directly in the ionization chamber.
Complete spectra were collected every few minutes.
The ^2P3/2 peak of argon at 15.76 eV ionization energy is typically used for internal energy calibration, but over the course of the experiment sensitivity to the ^2P3/2 peak of Ar was lost. This often happens with molecules that are strong reductants, presumably because of the very large change in work function of the spectrometer when the sample condenses on the spectrometer surfaces. At this point the lamp was adjusted to emit He II photons in addition to He I photons. This allowed observation of the He self-ionization (by He II photons) at an apparent binding energy of 4.99 eV in the He I spectrum. This very sharp line is a convenient internal energy calibrant and is preferable for the calibration of low-energy ionizations. The resolution, as measured by the Ar peak before it was no longer visible, was approximately 0.030 eV. The resolution for the W2(TMhpp)4 and W2(TEhpp)4 experiments, as measured by the He self-ionization, was 71 meV and 88 meV, respectively. Over the course of two separate data collections of W2(TMhpp)4, approximately 800 counts of the full He I spectrum (Graphic S1) and an additional 400 counts of a close-up on the δ bond ionization were collected. For W2(TEhpp)4 approximately 400 counts of the δ bond ionization were collected.
The ionization bands are represented analytically with asymmetric Gaussian peaks. As is typical for the first ionization bands of M2(hpp)4 molecules, a weak shoulder is observed on the high ionization energy side of the peak that necessitates the use of a second asymmetric Gaussian component to reasonably account for the total contour of the ionization intensity. The additional ionization intensity on the high ionization energy side of the first band is ascribed to the different puckered conformations that the hpp ligands can adopt in the molecules. […]

[10] = common dry solvents such as THF, toluene, and benzene
[11] = non-halogenated, non-protonated solvents such as THF, toluene, benzene and even hexanes

For C1CN=C2[N-]CCCN2C1.C1CN=C2[N-]CCCN2C1.C1CN=C2[N-]CCCN2C1.C1CN=C2[N-]CCCN2C1.FC(F)(F)c1cc([B-](c2cc(C(F)(F)F)cc(C(F)(F)F)c2)(c2cc(C(F)(F)F)cc(C(F)(F)F)c2)c2cc(C(F)(F)F)cc(C(F)(F)F)c2)cc(C(F)(F)F)c1.FC(F)(F)c1cc([B-](c2cc(C(F)(F)F)cc(C(F)(F)F)c2)(c2cc(C(F)(F)F)cc(C(F)(F)F)c2)c2cc(C(F)(F)F)cc(C(F)(F)F)c2)cc(C(F)(F)F)c1.[W+3]#[W+3] [W2(hpp)4^2+ (TFPB^−)2], the “reported E1/2 / observed peak position for W2^5+/4+” value [1] is given as −1.81 V.

For CCC1(CC)CN2CC(CC)(CC)C[N+]3=C2[N](C1)[W-2]124([Cl])[N]5CC(CC)(CC)CN6CC(CC)(CC)C[N+](=C65)[W-2]31([Cl])([N+]1=C3N(CC(CC)(CC)C[N]32)CC(CC)(CC)C1)[N+]1=C2N(CC(CC)(CC)C[N]24)CC(CC)(CC)C1 [compound 2, W2(TEhpp)4Cl2], the “E1/2(1), W2^6+/5+ process” value [2] was −0.99 V and the “E1/2(2), W2^5+/4+ process” value [2] was −1.90 V.

In the case of W2(TMhpp)4 [compound 3], the “solubility properties compared to decamethylcobaltocene” value [3] is reported as “compare very favorably”, the solubility [3, 10] is reported as “very soluble” and the solubility ([3]; hexanes) is reported as “Some solubility”. The solubility [3, 11] was “very soluble”, the “decomposition during PES measurement” value ([4]; 216 to 271° C., 2½ h) was “In neither case was there any evidence of decomposition” and the “decomposition during PES measurement” value ([4]; 216 to 271° C., 2½ h, listed as W2(TMhpp)4) was “without evidence of decomposition”.

For [K] [K, potassium], the “E1/2, literature” value ([5]; in THF) is listed as −2.66 V.

For [Cs] [cesium], the “ionization energy (IE)” value [6] is given as 3.89 eV.

For decamethylcobaltocene [(Cp*)2Co], the “ionization energy greater than that of compounds 3 and 4” value [7] is given as “more than 1 eV”, the “oxidation potential less negative than that of compounds 3 and 4” value [8] is given as “approximately 0.4 V” and the “ionization energy (IE)” value [6] is given as 4.705 eV. For the same molecule, the oxidation potential ([5]; comparison value) was −1.47 V.

In the case of CC1(C)CN2CC(C)(C)C[N+]3=C2[N](C1)[W-2]124([Cl])[N]5CC(C)(C)CN6CC(C)(C)C[N+](=C65)[W-2]31([Cl])([N+]1=C3N(CC(C)(C)C[N]32)CC(C)(C)C1)[N+]1=C2N(CC(C)(C)C[N]24)CC(C)(C)C1 [compound 1, W2(TMhpp)4Cl2], the “E1/2(1), W2^6+/5+ process” value [2] is reported as −0.99 V and the “E1/2(2), W2^5+/4+ process” value [2] is reported as −1.84 V.

For W2(TEhpp)4 [compound 4], the “onset ionization energy (IEonset, PESonset)” value [9] was 3.40±0.05 eV, the “vertical ionization energy (VIE, PESvertical)” value [9] was 3.71±0.03 eV and the “solubility properties compared to decamethylcobaltocene” value [3] was “compare very favorably”. The solubility [3, 10] was “very soluble”, the solubility ([3]; hexanes) was “significantly more soluble” and the solubility [3, 11] was “very soluble”. For the same molecule, the “decomposition during PES measurement” value ([4]; 317-340° C., about 1 h) was “In neither case was there any evidence of decomposition” and the “decomposition during PES measurement” value ([4]; 317-340° C., about 1 h, listed as W2(TEhpp)4) was “without evidence of decomposition”.

In the case of C1CN2CCC[N+]3=C2[N](C1)[W-2]124[N]5CCCN6CCC[N+](=C65)[W-2]31([N+]1=C3N(CCC[N]32)CCC1)[N+]1=C2N(CCC[N]24)CCC1 [W2(hpp)4, reference compound], the “onset ionization energy (IEonset, PESonset)” value [9] is reported as 3.51 eV and 3.51±0.05 eV, the “vertical ionization energy (VIE, PESvertical)” value [9] is reported as 3.76 eV and the solubility ([3]; non-reactive organic solvents) is reported as “poor solubility”. The “reported E1/2 / observed peak position for W2^5+/4+” value [1] was −1.81 V and the “reported E1/2 for W2^6+/5+” value [1] was −0.97 V.
